Measured values: patent US11452721B2, “Formulations of pimavanserin” (ACADIA Pharmaceuticals Inc., priority 2017, dated 2022)

What was measured:
[1] = test system: DOI ((±)-2,5-dimethoxy-4-iodoamphetamine, a serotonin agonist) induced head twitches; details: rat; oral doses of 3 and 10 mg/kg; cited from earlier work
[2] = test system: hyperactivity induced by the N-methyl-D-aspartate antagonist MK-801; details: mice; oral doses of 3 and 10 mg/kg; cited from earlier work
[3] = Bulk density according to USP <616> method 1; type: physicochemical
Description: (§1) Carr's Index compares the difference between the bulk density and tapped density of a substance to determine its compressibility. The bulk density and the Carr's Index may be determined in accordance with USP<616> (method for performing Bulk and Tapped Densities, method 1) and USP<1174> (definition of powder flow) respectively.
(§2) Table 1 visualizes that filling of a capsule, in particular a capsule of size 3 or 4 (capsule volumes of 0.30 and 0.21 ml respectively, approximately 120 mg and 85 mg respectively at a bulk density of […]). As evident from Table 1, native pimavanserin (API) would be challenging for a size 3 capsule and not possible for a capsule of size 4 without improving the bulk density (as comparison 85 mg of pimavanserin granulation would require about 0.17 ml compared to 0.29 ml for the native API) and flowability (Carr index is frequently used in pharmaceutical manufacturing as an indication of the flowability of a powder, e.g. 2016 U.S. Pharmacopoeias-National Formulary [USP 35 NF 30]).
The bulk density of the blended composition is >0.4 g/ml, such as 0.4-0.6 g/ml, such as about 0.5 g/ml determined according to USP <616>, method 1. […]
The bulk density of pimavanserin granulation is >0.4 g/ml, such as 0.4-0.6 g/ml, such as about 0.5 g/ml, determined according to USP <616>, method 1. […]

[4] = Laser light scattering particle size distribution (Malvern Mastersizer 2000); type: physicochemical; details: before vs after granulation, FIG. 4/5
From the text: The small quantity of water, its application using appropriate water atomization and/or water application rate are important reasons for the improved properties of pimavanserin. […] The actual amount of water to be sprayed at the granulation of pimavanserin may vary from batch to batch (depending on surrounding factors such as humidity, temperature, exact properties of the API batch, etc) but is still consider to be a small amount, e.g. 3-10% w/w based on the dry ingredients. The amount of water and the granulation process disclosed herein is controlled by controlling the impeller energy to achieve the targeted impeller speed. The appropriate impeller speed ensures sufficient mixing and controls the growth of granules. The specific small amount of water needed for each batch is controlled by the power consumption (amperage) of the granulator, i.e., if the amperage is […], additional amounts of water could be sprayed to the granulate in order to obtain pimavanserin having the properties desired in order to pharmaceutically manufacture capsules comprising 5-34 mg pimavanserin. […] The properties are achieved via a manufacturing process that includes granulation, using a suitable granulator, e.g. a high shear granulator, simultaneously spraying the adequate amount of water while mixing, followed by screening, and blending appropriate quantities of excipients. […]

[5] = FT4 Powder Rheology (FT4 Powder Rheometer, ASTM D7891-15); type: physicochemical; details: FT4 measurement
From the text: In addition to the bulk density and Carr's Index obtained according to USP <616>, method 1, FT4 Powder Rheology was obtained for the API (pimavanserin tartrate) and for the compositions disclosed herein using a FT4 Powder Rheometer according to ASTM D7891-15; Standard Test Method for Shear Testing of Powders Using the Freeman Technology FT4 Powder Rheometer Shear Cell.
As discussed herein above the flowability of the composition has been improved compared to the API (pimavanserin tartrate), which for example can be supported by the Specific Energy (SE) obtained from the FT4 measurements. Specific Energy is a measure of the powder's flowability when unconfined, such as during low stress filling, or low shear blending. The average Specific Energy (SE) for the API is about 10.08+/−0.23 mJ/g.
The FT4 Powder Rheometer was also used as yet another means to compare the bulk density between the API, the granulated pimavanserin and the blended pimavanserin compositions disclosed herein and in the accompanying claims. The bulk density is a conditioned bulk density as obtained by the FT4 measurement, in accordance with ASTM D7891-15; Standard Test Method for Shear Testing of Powders Using the Freeman Technology FT4 Powder Rheometer Shear Cell.
The blended pimavanserin composition used in the herein mention FT4 Powder Rheometry measurements comprised 34 mg pimavanserin, 59 mg microcrystalline cellulose and 1 mg magnesium stearate.

[6] = Carr's Index (Carr's Compressibility Index), USP <616>/<1174>; type: physicochemical
Description: as §1, §2

Compound | activity in DOI induced head twitches [1] | attenuation of MK-801 induced hyperactivity [2] | volume required by 85 mg ([3]; 85 mg of material, from bulk density) | Bulk density according to USP <616> ([3]; USP <616> method 1) | particle size distribution D90 [4] | average Flow Rate Index (FRI) [5] | average Specific Energy (SE) [5] | average conditioned bulk density (CBD) ([5]; ASTM D7891-15) | Carr's Index [6]
CC(C)COc1ccc(CNC(=O)N(Cc2ccc(F)cc2)C2CCN(C)CC2)cc1 [Pimavanserin, N-(1-methylpiperidin-4-yl)-N-(4-fluorophenylmethyl)-N′-(4-(2-methylpropyloxy)phenylmethyl)carbamide] | effective | effective | – | – | – | – | – | – | –
pimavanserin tartrate [Native API] | – | – | 0.29 mL | 0.294 g/mL | about 30 μm | 1.90±0.01 | about 10.08+/−0.23 mJ/g | 0.336 ± 0.006 g/mL | 36
